According to patent publication US8846627B2, “Method for treatment of malaria” (The Second Military Medical University, priority 2009, dated 2014):

Columns and labels:
[1] = target: T1, Falcipain-2 protease (FP-2) (Plasmodium falciparum, UniProt Q8I6U4); test: SPR (Biacore 3000) binding assay with immobilised FP-2 protein; settings: SPR screening at 1 μM and 10 μM
T1 construct: The falcipain-2 fragment was amplified by the polymerase chain reaction (PCR); His6 (N-terminal MRGS-His6 supplied by the pQE-30 vector; own knowledge of the vector, consistent with the Ni2+-NTA purification) (N); made in house; host or cells: E. coli M15
T1 sequence (Q8I6U4 244-484): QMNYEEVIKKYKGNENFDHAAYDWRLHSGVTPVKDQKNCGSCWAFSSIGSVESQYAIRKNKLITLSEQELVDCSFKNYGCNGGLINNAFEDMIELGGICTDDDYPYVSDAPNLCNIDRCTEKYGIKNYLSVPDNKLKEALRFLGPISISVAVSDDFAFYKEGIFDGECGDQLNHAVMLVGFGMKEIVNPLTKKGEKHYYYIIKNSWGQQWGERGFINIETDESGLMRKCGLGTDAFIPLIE
From the text: The screening and kinetics determination of the falcipain-2 protease and tiliroside binding activity are based on SPR mechanism, which employs Biacore 3000 (Biacore AB, Uppsala, Sweden).
(1) The Construction of Falcipain-2 Plasmid (pQE30-Fal2)
Primers were designed according to the falcipain-2 cDNA sequence, utilizing the following primers, forward 5′[…]3′(SEQ ID NO. 1) and reverse 5′[…]3′ (SEQ ID NO. 2), which including two restriction sites, BamH I and SaI I The falcipain-2 fragment was amplified by the polymerase chain reaction (PCR), and the PCR product was ligated into the pQE-30 expression vector and then further verified by sequencing. This construct was transformed into E. coil M15 (Qiagen).
(2) Expression and Purification of Falcipain-2 Protein
The engineering bacteria were obtained by transforming constructed plasmid pQE30-Fal2 into the E. coli M15 cells. They were culturing in LB medium (10 g/L tryptone, 5 g/L yeast extract, 10 g/L sedium chloride) containing ampicillin […] and kanamtcin […] for overnight. Then, transfer the bacteria into fresh LB medium (1 L) containing ampicillin and kanamycin (according to 1:100) at 37° C., 220 rpm. […] Bound protein was eluted with 8M urea, 20 mM Tris-Cl, 1M imidazole, pH 8.0, and the eluted protein was analyzed by SDS-PAGE. […]

[2] = target: T1, Falcipain-2 protease (FP-2); test: Falcipain-2 protease inhibition assay (fluorescence reaction rate); type: biochemical
Procedure: (1) Expression and Purification of Falcipain-2 and Refolding of FP-2 Inclusion Bodies Protein
(2) The Determination of the Invention Compounds' Inhibitory Activity Against FP-2
FP-2 protein and test compounds dissolved in DMSO (prepared from EXAMPLES 1-4) were added to 197 μL, buffer, containing 100 mM NaOAc, 10 mM DTT, pH 5.5 (final concentration 10 μg/mL). The test compound were Stenopalustroside A, Stenopalustroside D, Tiliroside, kaempferol 3-O-β-(6″-caffeoylglucoside) and kaempferol 3-(2,4-di-E-p-coumaroyl-rhamnoside), respectively, which final concentration were 10 μM and 0 μM (as negative control). These compounds were incubated for […] and employed MD SpectraMax M5 Microplate Reader to continuous detect the RFU for 15 min, at excitation 355 nm and emission 460 nm Calculate the reaction rate Km, and obtain percentage inhibitory rate of the test compound at 10 μM by the following equation,
The equation is: (Kmof control group−Kmof experimental group)/Kmof control group×100%
Select […] compounds with over 50% inhibitory rate to detect IC50, and utilize the compound solutions prepared from EXAMPLE 1 to EXAMPLE 4, Stenopalustroside A, tiliroside kaempferol 3-O-β-(6″-caffeoylglucoside), and the experimental methods and system followed as EXAMPLE 6. According to FP-2 activity reaction rate Km with compounds at different concentrations, we can calculate the inhibitory rate of compounds against FP-2 at different concentration. The IC50 value was fitted with utilizing the Sigmoidal Equation by Origin software.

## O=C(/C=C/c1ccc(O)cc1)OC[C@H]1O[C@@H](Oc2c(-c3ccc(O)cc3)oc3cc(O)cc(O)c3c2=O)[C@H](O)[C@@H](O)[C@@H]1O [Tiliroside]
[1]
  binding activity with FP-2 protein: obvious binding activity
[2]
  IC50: 13.1 µM
[2]; 10 μM compound, pH 5.5
  inhibition at 10 µM: 64.4%
